# According to patent US9717727B2, “Methods of treating and preventing leukemia and other cancers of the blood and bone” (The Trustees of Columbia University in the City of New York, priority 2011, dated 2017):
# Tested on: EL4-GFP-Luc lymphoma/lymphoblastic cells
# Assay: EL4-GFP-Luc lymphoblastic leukemia mouse model, long-term oral LP-533401 treatment (Example 9)
# Type: in vivo, mice
# Method: 8- to 10-week-old immunocompetent male mice were inoculated with tumor cells by tail vein injection. The EL4 cell line was established from a lymphoma-induced tumor in a C57BL mouse by 9,10-dimethyl-1,2-benzanthacene. An EL4 cell line transduced with green fluorescence protein and luciferase, EL4-GFP-Luc, was injected via the lateral tail vein of the B6(Cg)-Tyrc-2J mice (500,000 cells per mouse). The EL4-GFP-Luc fusion gene was used to allow cell trafficking and tumor progression to be assessed by an in vivo imaging system.
# Leukemia engraftment and progression was monitored using the Xenogen IVIS-200 System (IVIS® imaging system, Xenogen Corporation), an in vivo imaging technology platform that allows non-invasive visualization, and tracking of cellular and genetic activity within a living organism. The system consists of a CCD camera mounted on a light-tight specimen chamber, a camera controller, a cryogenic cooler, a fluorescence light source and a computer system for data acquisition and analysis. The system is capable of imaging bioilluminescence and fluorescence in living animals.
# In this study, since luminescence was being detected, luciferin as a substrate of luciferase was administered to the mice. The mice were monitored using the in vivo imaging system twice per week. Mice were anaesthetized using isoflurane, and then were injected intraperitoneally with luciferin (0.15 mg per g body weight) 10 minutes before the detection point. Mice were imaged using the in vivo system, setting the exposure time to 1 minute. Bioilluminescence intensity was recorded and counted.
# Blood was collected by cardiac puncture in EDTA (CBCs and blood smears) or non-EDTA (serum) coated tubes. For serum preparation, blood was kept at room temperature for 15 minutes and centrifuged at 15,700 g for 10 min at 4° C. Serum osteocalcin was measured using the Osteocalcin IRMA kit (Immutopics).
# Time-to-event analysis was used to assess two endpoints of interest, death and paralysis. The day which mice were inoculated with tumor cells was considered Day 1. Animals were followed up to 62 days. […] Kaplan-Meier curves were generated to illustrate time to death and paralysis, stratified by group status. Statistical significance of the between-group difference in the median time-to-endpoint was assessed by the log-rank test. Statistical analyses were performed using the EXCEL-XLSTAT and SAS softwares0. A P value less than 0.05 was considered statistically significant.
# Mice injected with the EL-4 cell line, EL4-GFP-Luc, were used as described in Example 2. The imaging system describe in Example 2 was used.
# Mice were treated orally with LP-533401 (25 or 200 mg per kg of body weight per day) or vehicle. Treatments started 15 days before malignant cell injections in all sets of experiments, and continued for the indicated periods of time. LP-533401 was dissolved in polyethylene glycol (PEG) and 5% dextrose or 2.5% glucose (Sigma), and given daily by oral gavage. Mice treated with vehicle were administered, in the same way as LP533401, a solution of PEG and 5% dextrose or 2.5% glucose, daily, by oral gavage.
# The mice were divided into four groups of mice: • Mice with no leukemia treated with a vehicle, i.e., non-leukemic-vehicle-treated (“WT”); • Mice with no leukemia treated with LP533401, i.e., non-leukemic-LP-533401-treated (“NL-LP”); • Mice with leukemia treated with a vehicle, i.e., leukemic-vehicle-treated (“Leuk-veh”); and • Mice with leukemia treated with LP-533401, leukemic-LP533410-treated (“Leuk-LP”).
# Treatment of the non-leukemic mice with the vehicle or LP-533401 lasted a total of 35 days and treatment of the leukemic animals with a vehicle or LP-533401 continued until the day mice were sacrificed, which occurred at different time points, depending upon the presence of signs of illness. […]
# [1] = among ten leukemic mice treated
# [2] = leukemic mice (EL4), peripheral blood
structure (smiles),measurement,setting,value
Nc1nc(OC(c2ccc(-c3cccc(F)c3)cc2)C(F)(F)F)cc(-c2ccc(C[C@H](N)C(=O)O)cc2)n1 (stereo partly shown) [LP-533401],number of treated leukemic mice that cleared their leukemia,[1],2
same,number of treated leukemic mice that never developed leukemia,[1],2
same,number of treated leukemic mice that developed leukemia at a late stage and then recovered,"among ten leukemic mice treated, day 28",1
same,animals that developed hind-limb paralysis,leukemic mice (EL4),38%
same,reticulocyte numbers,leukemic mice (EL4),prevented leukemia induced suppression of reticulocyte numbers
same,tumor burden by bioluminescence imaging / luciferase intensity,leukemic mice (EL4),decreased tumor burden
same,"anemia (red blood cells, hemoglobin, hematocrit)",[2],ameliorated anemia
same,leukemia-associated increase in WBCs,[2],diminished
same,"neutrophils, monocytes and lymphocytes",[2],restored to normal numbers
same,overall survival,mice with leukemia (EL4),significantly longer overall survival
